ChEMBL document CHEMBL1125003, “Synthesis, biological evaluation, and quantitative structure-activity relationship analysis of [beta-(Aroylamino)ethyl]piperazines and -piperidines and [2-[(Arylamino)carbonyl]ethyl]piperazines, -pyrazinopyridoindoles, and -pyrazinoisoquinolines. A new class of potent H1 antagonists” (J Med Chem, 1990)
Where “and” joins values, the source holds several entries; their conditions need not be identical. Equal entries are not always repeated.

The molecules below were run against Histamine H1 receptor (Cavia porcellus, UniProt P31389) (assay: Antihistaminic activity against Histamine H1 receptor was measured on isolated terminal part of guinea pig ileum). Settings: read-out: I50.
Sequence of Histamine H1 receptor (P31389 whole entry): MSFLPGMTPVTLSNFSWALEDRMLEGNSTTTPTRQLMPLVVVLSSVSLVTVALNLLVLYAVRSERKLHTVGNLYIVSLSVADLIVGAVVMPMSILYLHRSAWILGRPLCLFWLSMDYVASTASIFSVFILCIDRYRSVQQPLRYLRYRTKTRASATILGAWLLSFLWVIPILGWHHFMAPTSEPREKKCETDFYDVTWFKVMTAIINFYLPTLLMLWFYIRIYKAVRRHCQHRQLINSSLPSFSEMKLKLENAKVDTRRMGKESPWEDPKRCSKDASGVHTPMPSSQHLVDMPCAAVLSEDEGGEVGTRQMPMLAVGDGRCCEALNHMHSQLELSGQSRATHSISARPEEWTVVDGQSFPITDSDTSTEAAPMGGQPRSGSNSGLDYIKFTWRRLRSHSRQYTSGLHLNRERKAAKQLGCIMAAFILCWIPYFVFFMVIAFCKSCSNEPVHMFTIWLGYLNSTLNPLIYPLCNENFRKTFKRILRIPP
Type: tissue-based
`COc1ccccc1NC(=O)CCN1CCC(Cc2ccccc2)CC1` gave an IC50 of 963 nM.

Same assay, conditions: read-out: I50 (converted)
In the case of `O=C(CCN1CCN2Cc3ccccc3CC2C1)Nc1ccccc1` (stereo unspecified), the IC50 is reported as 1340 nM.
`O=C(NCCN1CCC(Cc2ccccc2)CC1)c1ccccc1Br` was tested, and the IC50 was 661 nM and 673 nM.
In the case of `O=C(CCN1CCN2Cc3ccccc3CC2C1)Nc1ccccc1[N+](=O)[O-]` (stereo unspecified), the IC50 is reported as 1320 nM and 1310 nM.
In the case of `O=C(CCN1CCN2Cc3[nH]c4ccccc4c3CC2C1)Nc1ccccc1[N+](=O)[O-]` (stereo unspecified), the IC50 is reported as 1740 nM.
For `O=C(CCN1CCC(Cc2ccccc2)CC1)Nc1ccccc1Cl`, the IC50 was 561 nM and 560 nM.
Molecule `ClN1CCN2Cc3[nH]c4ccccc4c3CC2C1` (stereo unspecified) has an IC50 of 206 nM.
For `O=C(NCCN1CCN(Cc2ccccc2)CC1)c1ccccc1[N+](=O)[O-]`, the IC50 was 1320 nM and 1570 nM.
For `O=C(NCCN1CCN(Cc2ccccc2)CC1)c1ccccc1I`, the IC50 was 345 nM and 401 nM.
Molecule `O=C(CCN1CCN2Cc3[nH]c4ccccc4c3CC2C1)Nc1ccccc1` (stereo unspecified) has an IC50 of 1600 nM.
In the case of `O=C(CCN1CCN2Cc3[nH]c4ccccc4c3CC2C1)Nc1ccccc1F` (stereo unspecified), the IC50 is reported as 1280 nM and 1270 nM.
With `CCc1ccccc1NC(=O)CCN1CCN(Cc2ccccc2)CC1` the IC50 was 778 nM and 939 nM.
`O=C(CCN1CCN(Cc2ccccc2)CC1)Nc1ccccc1[N+](=O)[O-]` was tested, and the IC50 was 1700 nM and 2040 nM.
For `O=C(CCN1CCC(Cc2ccccc2)CC1)Nc1ccccc1F`, the IC50 was 832 nM and 822 nM.
With `O=C(CCN1CCN2Cc3[nH]c4ccccc4c3CC2C1)Nc1ccccc1Cl` (stereo unspecified) the IC50 was 979 nM and 978 nM.
For `O=C(CCN1CCN(Cc2ccccc2)CC1)Nc1ccccc1F`, the IC50 was 1320 nM and 908 nM.
With `O=C(CCN1CCN(Cc2ccccc2)CC1)Nc1ccccc1Cl` the IC50 was 836 nM and 1010 nM.
With `O=C(NCCN1CCC(Cc2ccccc2)CC1)c1ccccc1` the IC50 was 1550 nM and 1740 nM.
In the case of `COc1ccccc1C(=O)NCCN1CCN2Cc3[nH]c4ccccc4c3CC2C1` (stereo unspecified), the IC50 is reported as 364 nM.
`c1ccc2c3c([nH]c2c1)CN1CCNCC1C3` (stereo unspecified) showed an IC50 of 535 nM.
`CCc1ccccc1NC(=O)CCN1CCN2Cc3[nH]c4ccccc4c3CC2C1` (stereo unspecified) gave an IC50 of 634 nM.
For `O=C(NCCN1CCC(Cc2ccccc2)CC1)c1ccccc1Cl`, the IC50 was 799 nM and 785 nM.
In the case of `Cc1ccccc1C(=O)NCCN1CCC(Cc2ccccc2)CC1`, the IC50 is reported as 1070 nM and 1190 nM.
In the case of `O=C(NCCN1CCN(Cc2ccccc2)CC1)c1ccccc1`, the IC50 is reported as 6940 nM and 8500 nM.
With `CCc1ccccc1NC(=O)CCN1CCC(Cc2ccccc2)CC1` the IC50 was 477 nM and 485 nM.
With `O=C(CCN1CCC(Cc2ccccc2)CC1)Nc1ccccc1` the IC50 was 1510 nM and 1520 nM.
With `O=C(CCN1CCN(Cc2ccccc2)CC1)Nc1ccccc1` the IC50 was 2170 nM and 2200 nM.
In the case of `O=C(NCCN1CCN(Cc2ccccc2)CC1)c1ccccc1Br`, the IC50 is reported as 421 nM and 497 nM.
In the case of `O=C(CCN1CCN2Cc3ccccc3CC2C1)Nc1ccccc1Cl` (stereo unspecified), the IC50 is reported as 677 nM and 676 nM.
`CN1CCN2Cc3[nH]c4ccccc4c3CC2C1` (stereo unspecified) showed an IC50 of 283 nM.
In the case of `O=C(NCCN1CCN(Cc2ccccc2)CC1)c1ccccc1Cl`, the IC50 is reported as 696 nM and 838 nM.
With `COc1ccccc1NC(=O)CCN1CCC(Cc2ccccc2)CC1` the IC50 was 965 nM.
`NN1CCN2Cc3[nH]c4ccccc4c3CC2C1` (stereo unspecified) gave an IC50 of 925 nM.
For `Cc1ccccc1C(=O)NCCN1CCN(Cc2ccccc2)CC1`, the IC50 was 7120 nM and 7110 nM.
`CCc1ccccc1NC(=O)CCN1CCN2Cc3ccccc3CC2C1` (stereo unspecified) was tested, and the IC50 was 525 nM and 523 nM.
Molecule `O=[N+]([O-])N1CCN2Cc3[nH]c4ccccc4c3CC2C1` (stereo unspecified) has an IC50 of 375 nM.
